Source: PubChem BioAssay AID1845209 (Molecular Pharmacology Branch, DTP, NCI, 2023)
Values joined by “and” are separate entries in the source; they are usually repeats but may differ in a detail not shown here. Equal entries are not always repeated.

Tested on: NCI-H211 tumor spheroids, viability percent test/control
Test: Anticancer human tumor NCI-H211 cell line growth inhibition;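 further: spheroids exposed to agents for seven days before readout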
Conditions: spheroids with HUVEC and MSC; for viability, T/C: stronger effect = lower value
Summary of the method: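 Single agents and combinations were tested on spheroids built from tumor cells plus HUVEC and hMSC, at half-log dilutions starting at or near clinical Cmax, else 10 microM; final DMSO 0.25% (v/v).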

SMILES: Cc1sc2c(c1C)C(c1ccc(Cl)cc1)=NC(CC(=O)Nc1ccc(O)cc1)c1nnc(C)n1-2 (stereo not drawn) + CC[C@@]1(O)C(=O)OCc2c1cc1n(c2=O)Cc2cc3c(CN(C)C)c(O)ccc3nc2-1
- IC50 (curve of first compound, second compound 0.003 µM): < 9.49 nM
- IC50 (curve of first compound, second compound 0.00949 µM): < 9.49 nM
- IC50 (curve of first compound, second compound 0.03 µM): < 9.49 nM
- IC50 (curve of first compound, second compound 0.0949 µM): < 9.49 nM
- IC50 (curve of first compound, second compound 0.3 µM): < 9.49 nM
- viability, T/C (second compound 0.003 µM, first compound 0.00949 µM): 30.2%
- viability, T/C (second compound 0.003 µM, first compound 0.03 µM): 3.07%
- viability, T/C (second compound 0.003 µM, first compound 0.0949 µM): 0.77%
- viability, T/C (second compound 0.003 µM, first compound 0.3 µM): 0.53%
- viability, T/C (second compound 0.003 µM, first compound 0.949 µM): 0.42%
- viability, T/C (second compound 0.003 µM, first compound 3 µM): 0.44%
- viability, T/C (second compound 0.00949 µM, first compound 0.00949 µM): 3.11%
- viability, T/C (second compound 0.00949 µM, first compound 0.03 µM): 0.89%
- viability, T/C (second compound 0.00949 µM, first compound 0.0949 µM): 0.89%
- viability, T/C (second compound 0.00949 µM, first compound 0.3 µM): 0.57%
- viability, T/C (second compound 0.00949 µM, first compound 0.949 µM): 0.46%
- viability, T/C (second compound 0.00949 µM, first compound 3 µM): 0.57%
- viability, T/C (second compound 0.03 µM, first compound 0.00949 µM): 0.97%
- viability, T/C (second compound 0.03 µM, first compound 0.03 µM): 0.72%
- viability, T/C (second compound 0.03 µM, first compound 0.0949 µM): 0.81%
- viability, T/C (second compound 0.03 µM, first compound 0.3 µM): 0.54%
- viability, T/C (second compound 0.03 µM, first compound 0.949 µM): 0.57%
- viability, T/C (second compound 0.03 µM, first compound 3 µM): 0.55%
- viability, T/C (second compound 0.0949 µM, first compound 0.00949 µM): 0.76%
- viability, T/C (second compound 0.0949 µM, first compound 0.03 µM): 0.8%
- viability, T/C (second compound 0.0949 µM, first compound 0.0949 µM): 0.73%
- viability, T/C (second compound 0.0949 µM, first compound 0.3 µM): 0.79%
- viability, T/C (second compound 0.0949 µM, first compound 0.949 µM): 0.59%
- viability, T/C (second compound 0.0949 µM, first compound 3 µM): 0.6%
- viability, T/C (second compound 0.3 µM, first compound 0.00949 µM): 0.94%
- viability, T/C (second compound 0.3 µM, first compound 0.03 µM): 0.9%
- viability, T/C (second compound 0.3 µM, first compound 0.0949 µM): 0.83%
- viability, T/C (second compound 0.3 µM, first compound 0.3 µM): 0.85%
- viability, T/C (second compound 0.3 µM, first compound 0.949 µM): 0.54%
- viability, T/C (second compound 0.3 µM, first compound 3 µM): 0.51%

SMILES: CC1COCCN1c1cc(-c2ccnn2C)c2ccnc(-c3ccn[nH]3)c2n1 (stereo not drawn)
- viability, T/C (compound 0.1 µM): 0.66% and 1.94% and 4.83%
- viability, T/C (compound 0.316 µM): 0.63% and 0.89% and 0.78%
- viability, T/C (compound 1 µM): 0.57% and 0.81% and 0.58%
- viability, T/C (compound 3.16 µM): 0.43% and 0.84% and 0.58%
- viability, T/C (compound 10 µM): 0.61% and 1.42% and 0.85%
- IC50 (curve of compound): < 31.6 nM

SMILES: O=C(c1cc(Cc2n[nH]c(=O)c3ccccc23)ccc1F)N1CCN(C(=O)C2CC2)CC1
- viability, T/C (compound 0.0949 µM): 36% and 73% and 92.9%
- viability, T/C (compound 0.3 µM): 30.1% and 42.2% and 63.5%
- viability, T/C (compound 0.949 µM): 14.9% and 5.83% and 9.79%
- viability, T/C (compound 3 µM): 9.02% and 1.22% and 0.8%
- viability, T/C (compound 9.49 µM): 8.37% and 1.02% and 0.69%
- viability, T/C (compound 30 µM): 7.89% and 0.93% and 0.73%
- IC50 (curve of compound): < 94.9 nM and 224 nM and 401 nM

SMILES: CC1COCCN1c1cc(-c2ccnn2C)c2ccnc(-c3ccn[nH]3)c2n1 (stereo not drawn) + Cn1nnc2c(C(N)=O)ncn2c1=O
- IC50 (curve of first compound, second compound 1 µM): < 31.6 nM
- IC50 (curve of first compound, second compound 3.16 µM): < 31.6 nM
- IC50 (curve of first compound, second compound 10 µM): < 31.6 nM
- IC50 (curve of first compound, second compound 31.6 µM): < 31.6 nM
- IC50 (curve of first compound, second compound 100 µM): < 31.6 nM
- viability, T/C (second compound 1 µM, first compound 0.0316 µM): 11.4%
- viability, T/C (second compound 1 µM, first compound 0.1 µM): 1.45%
- viability, T/C (second compound 1 µM, first compound 0.316 µM): 0.83%
- viability, T/C (second compound 1 µM, first compound 1 µM): 0.74%
- viability, T/C (second compound 1 µM, first compound 3.16 µM): 0.72%
- viability, T/C (second compound 1 µM, first compound 10 µM): 1.43%
- viability, T/C (second compound 3.16 µM, first compound 0.0316 µM): 9.67%
- viability, T/C (second compound 3.16 µM, first compound 0.1 µM): 1.34%
- viability, T/C (second compound 3.16 µM, first compound 0.316 µM): 0.86%
- viability, T/C (second compound 3.16 µM, first compound 1 µM): 0.68%
- viability, T/C (second compound 3.16 µM, first compound 3.16 µM): 0.72%
- viability, T/C (second compound 3.16 µM, first compound 10 µM): 1.44%
- viability, T/C (second compound 10 µM, first compound 0.0316 µM): 6.59%
- viability, T/C (second compound 10 µM, first compound 0.1 µM): 0.88%
- viability, T/C (second compound 10 µM, first compound 0.316 µM): 0.79%
- viability, T/C (second compound 10 µM, first compound 1 µM): 0.62%
- viability, T/C (second compound 10 µM, first compound 3.16 µM): 0.67%
- viability, T/C (second compound 10 µM, first compound 10 µM): 1.16%
- viability, T/C (second compound 31.6 µM, first compound 0.0316 µM): 1.39%
- viability, T/C (second compound 31.6 µM, first compound 0.1 µM): 1.09%
- viability, T/C (second compound 31.6 µM, first compound 0.316 µM): 0.74%
- viability, T/C (second compound 31.6 µM, first compound 1 µM): 0.59%
- viability, T/C (second compound 31.6 µM, first compound 3.16 µM): 0.66%
- viability, T/C (second compound 31.6 µM, first compound 10 µM): 1.11%
- viability, T/C (second compound 100 µM, first compound 0.0316 µM): 1.19%
- viability, T/C (second compound 100 µM, first compound 0.1 µM): 1.1%
- viability, T/C (second compound 100 µM, first compound 0.316 µM): 0.95%
- viability, T/C (second compound 100 µM, first compound 1 µM): 0.67%
- viability, T/C (second compound 100 µM, first compound 3.16 µM): 0.65%
- viability, T/C (second compound 100 µM, first compound 10 µM): 1.12%
